In experiment [1] the target is T1, hM1 (human Muscarinic receptor subtype 1) (Homo sapiens, UniProt P11229).
T1 construct: expressed in transfected cells; host or cells: CHO cells (ATCC)
T1 sequence (P11229 1-460): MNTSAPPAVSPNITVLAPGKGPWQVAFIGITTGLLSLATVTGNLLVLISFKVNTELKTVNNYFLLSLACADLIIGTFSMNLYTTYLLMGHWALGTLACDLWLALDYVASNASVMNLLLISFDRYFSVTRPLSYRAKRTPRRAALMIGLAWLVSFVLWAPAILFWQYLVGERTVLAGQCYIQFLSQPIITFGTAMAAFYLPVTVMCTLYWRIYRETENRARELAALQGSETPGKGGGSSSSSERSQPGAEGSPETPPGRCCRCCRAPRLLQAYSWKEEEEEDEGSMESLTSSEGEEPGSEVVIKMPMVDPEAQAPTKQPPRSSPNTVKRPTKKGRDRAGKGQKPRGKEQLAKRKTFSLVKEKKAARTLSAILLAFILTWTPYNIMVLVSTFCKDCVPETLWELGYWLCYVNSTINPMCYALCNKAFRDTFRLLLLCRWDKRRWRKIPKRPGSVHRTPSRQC
The experiment in a line: Human M1 calcium mobilization FLIPR assay. As to conditions: hM1 expressed in CHO cells, intracellular Ca2+ release (FLIPR). Format: cell-based. The protocol: (§1) Human M1, rat M1, Human M3 and Human M5 Calcium Mobilization FLIPR™ Assay The compound activity in the present invention (EC50 or IC50) is measured using a 384 plate-based imaging assay that monitors drug induced intracellular Ca^2+ release in whole cells. Activation of hM1 (human Muscarinic receptor subtype 1, gene bank access NM_000738), rM1 (rat Muscarinic receptor subtype 1, gene bank access NM_080773), hM3 (human Muscarinic receptor subtype 3, gene bank access NM_000740NM_000740) and hM5 (human Muscarinic receptor subtype 5, gene bank access NM_0121258), receptors expressed in CHO cells (Chinese hamster ovary cells, ATCC) is quantified in a Molecular Devices FLIPR IITM instrument as an increase in fluorescent signal. Inhibition of hM3 and hM5 by compounds is determined by the decrease in fluorescent signal in response to 2 nM acetylcholine activation. […] Prior to experiment, the cell culture medium is removed from the plates by inversion. […] Plates are incubated at 37° C. for 60 minutes prior to start the experiment. The incubation is terminated by washing the cells four times in assay buffer, leaving a residual 25 μl buffer per well. Cell plates are then transferred to the FLIPR, ready for compound additions. The day of experiment, acetylcholine and compounds are diluted in assay buffer in three-fold concentration range (10 points serial dilution) for addition by FLIPR instrument. For all calcium assays, a baseline reading is taken for 10 seconds followed by the addition of 12.5 μl of compounds, resulting in a total well volume of 37.5 μl. Data is collected every second for 60 pictures and then every 6 seconds for 20 pictures prior to the addition of agonist. For hM3 and hM5, before agonist addition, a second baseline reading is taken for 10 seconds followed by the addition of 12.5 μl of agonist or buffer, producing a final volume of 50 μl. After agonist stimulation, the FLIPR continues to collect data every second for 60 pictures and then every 6 seconds for 20 pictures. The fluorescence emission is read using filter 1 (emission 510-570 nm) by the FLIPR on board CCD camera. Calcium mobilization output data are calculated as the maximal relative fluorescence unit (RFU) minus the minimal value for both compound and agonist reading frame (except for hM1 and rM1 using only the maximal RFU). Data are analyzed using sigmoidal fits of a non-linear curve-fitting program (XLfit version 4.2.2 Excel add-in version 4.2.2 build 18 math 1Q version 2.1.2 build 18). All pEC50 and pIC50 values are reported as arithmetic means±standard error of mean of ‘n’ independent experiments.

In experiment [2] the target is T2, hM5 (human Muscarinic receptor subtype 5) (Homo sapiens, UniProt P08912).
T2 construct: expressed in transfected cells; host or cells: CHO cells (ATCC)
T2 sequence (P08912 1-532): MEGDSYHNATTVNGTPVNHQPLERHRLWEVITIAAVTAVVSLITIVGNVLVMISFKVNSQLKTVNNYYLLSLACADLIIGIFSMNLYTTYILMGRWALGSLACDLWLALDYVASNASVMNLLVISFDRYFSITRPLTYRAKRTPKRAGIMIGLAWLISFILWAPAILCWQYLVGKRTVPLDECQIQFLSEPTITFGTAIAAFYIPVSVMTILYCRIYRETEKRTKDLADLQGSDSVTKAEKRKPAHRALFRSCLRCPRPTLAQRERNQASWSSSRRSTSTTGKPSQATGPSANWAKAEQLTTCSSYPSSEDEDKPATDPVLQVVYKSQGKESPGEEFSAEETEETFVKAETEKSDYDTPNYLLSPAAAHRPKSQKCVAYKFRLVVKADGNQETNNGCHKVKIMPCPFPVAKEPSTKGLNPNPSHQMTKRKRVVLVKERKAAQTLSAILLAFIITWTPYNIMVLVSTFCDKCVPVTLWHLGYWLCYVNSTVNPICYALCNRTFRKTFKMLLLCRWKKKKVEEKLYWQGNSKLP
The experiment is described as follows: Human M5 calcium mobilization FLIPR assay. Type of experiment: cell-based. As to conditions: hM5 expressed in CHO cells, intracellular Ca2+ release (FLIPR). Here is the method:
as §1

The target in the next experiment is T3, cloned human M2 receptor (Homo sapiens, UniProt P08172).
T3 construct: purchased Perkin-Elmer RBHM2M; host or cells: Chinese hamster ovary cells (CHO), membranes
T3 sequence (P08172 1-466): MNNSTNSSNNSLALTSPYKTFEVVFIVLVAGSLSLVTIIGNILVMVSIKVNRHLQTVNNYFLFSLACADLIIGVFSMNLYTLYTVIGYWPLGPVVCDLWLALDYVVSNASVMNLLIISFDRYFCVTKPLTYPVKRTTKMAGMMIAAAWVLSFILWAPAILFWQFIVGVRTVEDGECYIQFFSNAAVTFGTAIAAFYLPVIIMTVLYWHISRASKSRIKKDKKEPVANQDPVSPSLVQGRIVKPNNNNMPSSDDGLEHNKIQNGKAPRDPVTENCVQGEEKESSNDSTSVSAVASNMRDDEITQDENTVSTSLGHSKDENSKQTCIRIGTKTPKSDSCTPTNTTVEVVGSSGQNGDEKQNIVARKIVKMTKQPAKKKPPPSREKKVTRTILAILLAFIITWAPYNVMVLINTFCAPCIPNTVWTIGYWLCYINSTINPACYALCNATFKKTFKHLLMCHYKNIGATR
The experiment is described as follows: hM2 receptor GTPγS binding. Format: biochemical. As to conditions: CHO membranes expressing hM2, [35S]GTPγS binding. The protocol:
hM2 Receptor GTPγS Binding Membranes produced from Chinese hamster ovary cells (CHO) expressing the cloned human M2 receptor (human Muscarinic receptor subtype 2, gene bank access NM_000739), are obtained from Perkin-Elmer (RBHM2M). The membranes are thawed at 37° C., passed 3 times through a 23-gauge blunt-end needle, diluted in the GTPγS binding buffer (50 mM Hepes, 20 mM NaOH, 100 mM NaCl, 1 mM EDTA, 5 mM MgCl2, pH 7.4, 100 μM DTT). The EC50, IC50 and Emax of the compounds of the invention are evaluated from 10-point dose-response curves (three fold concentration range) done in 60 μl in 384-well non-specific binding surface plate (Corning). Ten microliters from the dose-response curves plate (5× concentration) are transferred to another 384 well plate containing 25 μl of the following: 5 μg of hM2 membranes, 500 μg of Flashblue beads (Perkin-Elmer) and GDP 25 μM. An additional 15 μl containing 3.3× (60,000 dpm) of GTPγ^35S (0.4 nM final) are added to the wells resulting in a total well volume of 50 μl. Basal and maximal stimulated [^35S]GTPγS binding are determined in absence and presence of 30 μM final of acetylcholine agonist. The membranes/beads mix are pre-incubated for 15 minutes at room temperature with 25 μM GDP prior to distribution in plates (12.5 μM final). The reversal of acetylcholine-induced stimulation (2 μM final) of [^35S]GTPγS binding is used to assay the antagonist properties (IC50) of the compounds. The plates are incubated for 60 minutes at room temperature then centrifuged at 400 rpm for 5 minutes. The radioactivity (cpm) is counted in a Trilux (Perkin-Elmer). Values of EC50, IC50 and Emax are obtained using sigmoidal fits of a non-linear curve-fitting program (XLfit version 4.2.2 Excel add-in version 4.2.2 build 18 math 1Q version 2.1.2 build 18) of percent stimulated [^35S]GTPγS binding vs. log(molar ligand). All pEC50 and pIC50 values are reported as arithmetic means±standard error of mean of ‘n’ independent experiments.

Experiment [3] addresses T4, hM3 (human Muscarinic receptor subtype 3) (Homo sapiens, UniProt P20309).
T4 construct: expressed in transfected cells; host or cells: CHO cells (ATCC)
The experiment is described as follows: Human M3 calcium mobilization FLIPR assay. Format: cell-based. Particulars: hM3 expressed in CHO cells, intracellular Ca2+ release (FLIPR). Here is the method:
as §1

Experiment [4] is described as follows: one or more of the biological assays described above (unspecified). Particulars: tested using one or more of the biological assays described above. Here is the method: The compound activity in the present invention (EC50 or IC50) is measured using a 384 plate-based imaging assay that monitors drug induced intracellular Ca^2+ release in whole cells. Activation of hM1 (human Muscarinic receptor subtype 1, gene bank access NM_000738), rM1 (rat Muscarinic receptor subtype 1, gene bank access NM_080773), hM3 (human Muscarinic receptor subtype 3, gene bank access NM_000740NM_000740) and hM5 (human Muscarinic receptor subtype 5, gene bank access NM_0121258), receptors expressed in CHO cells (Chinese hamster ovary cells, ATCC) is quantified in a Molecular Devices FLIPR IITM instrument as an increase in fluorescent signal. Inhibition of hM3 and hM5 by compounds is determined by the decrease in fluorescent signal in response to 2 nM acetylcholine activation.
Membranes produced from Chinese hamster ovary cells (CHO) expressing the cloned human M2 receptor (human Muscarinic receptor subtype 2, gene bank access NM_000739), are obtained from Perkin-Elmer (RBHM2M). […] The EC50, IC50 and Emax of the compounds of the invention are evaluated from 10-point dose-response curves (three fold concentration range) done in 60 μl in 384-well non-specific binding surface plate (Corning). […] Basal and maximal stimulated [^35S]GTPγS binding are determined in absence and presence of 30 μM final of acetylcholine agonist. […] The radioactivity (cpm) is counted in a Trilux (Perkin-Elmer). […]

Bounds are passed on as bounds.

T4 sequence (P20309 whole entry): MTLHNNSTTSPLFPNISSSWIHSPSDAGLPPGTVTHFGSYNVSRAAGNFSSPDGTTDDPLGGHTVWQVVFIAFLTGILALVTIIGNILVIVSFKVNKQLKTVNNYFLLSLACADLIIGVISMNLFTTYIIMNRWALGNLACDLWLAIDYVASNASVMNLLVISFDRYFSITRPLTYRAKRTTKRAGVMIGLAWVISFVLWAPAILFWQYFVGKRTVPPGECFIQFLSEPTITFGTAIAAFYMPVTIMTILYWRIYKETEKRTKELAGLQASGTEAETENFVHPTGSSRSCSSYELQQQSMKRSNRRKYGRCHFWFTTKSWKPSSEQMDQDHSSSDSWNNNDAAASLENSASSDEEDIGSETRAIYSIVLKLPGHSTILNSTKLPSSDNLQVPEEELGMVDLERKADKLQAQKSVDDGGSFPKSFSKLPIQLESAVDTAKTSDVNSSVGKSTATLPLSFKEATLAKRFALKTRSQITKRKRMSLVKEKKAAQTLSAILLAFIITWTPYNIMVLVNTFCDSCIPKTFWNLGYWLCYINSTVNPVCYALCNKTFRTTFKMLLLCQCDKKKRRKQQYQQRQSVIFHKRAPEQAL

For the molecule `CC(C)OCC1CCC(N2CCC(N3C(=O)NC[C@H]4CCCC[C@@H]43)CC2)CC1` (single isomer, unassigned) [Example 03], the EC50 in experiment [1] was 0.058 µM; in experiment [2], greater than 14.5 µM; on cloned human M2 receptor, 1.7 µM; in experiment [3] it was greater than 40 µM.
Take `O=C1CO[C@H]2CCCC[C@@H]2N1C1CCN(C2CCC(COCC3CCC3)CC2)CC1` (single isomer, unassigned) [Example 28]: the EC50 is 0.051 µM in experiment [1], greater than 40 µM in experiment [2], greater than 90 µM at cloned human M2 receptor and greater than 40 µM in experiment [3].
In the case of `CC(C)OC1CCC(N2CCC(N3C(=O)NC[C@H]4CCCC[C@@H]43)CC2)CC1` (single isomer, unassigned) [diastereomer 2], the efficacy entry in experiment [4] is listed as “does not show efficacy”.
As for `O=C1CO[C@H]2CCCC[C@@H]2N1C1CCN(C2CCC(COCC3CCC3)CC2)CC1` (single isomer, unassigned) [Example 29], the EC50 in experiment [1] was 0.15 µM; in experiment [2] it was greater than 40 µM; at cloned human M2 receptor, greater than 90 µM; in experiment [3], greater than 40 µM.

The values above are taken from US20090275574A1, “NOVEL COMPOUNDS-300” (ASTRAZENECA AB, priority 2008, published 2009).
